The record followed here is ChEMBL document CHEMBL1153653, “Imidazo[4,5-b]pyridine-based AT1 / AT2 angiotensin II receptor antagonists” (Bioorg Med Chem Lett, 1994).

Usually IC50 stands for the concentration needed to halve the response being measured. Low readings indicate greater potency in that assay, high ones weaker potency in that assay. As usually defined, the ED50 is the dose that gives a 50% effect, or the effect in half of the subjects.

The target in assay [1] is T1, Type-1 angiotensin II receptor (Oryctolagus cuniculus, UniProt P34976).
T1 sequence (P34976 whole entry): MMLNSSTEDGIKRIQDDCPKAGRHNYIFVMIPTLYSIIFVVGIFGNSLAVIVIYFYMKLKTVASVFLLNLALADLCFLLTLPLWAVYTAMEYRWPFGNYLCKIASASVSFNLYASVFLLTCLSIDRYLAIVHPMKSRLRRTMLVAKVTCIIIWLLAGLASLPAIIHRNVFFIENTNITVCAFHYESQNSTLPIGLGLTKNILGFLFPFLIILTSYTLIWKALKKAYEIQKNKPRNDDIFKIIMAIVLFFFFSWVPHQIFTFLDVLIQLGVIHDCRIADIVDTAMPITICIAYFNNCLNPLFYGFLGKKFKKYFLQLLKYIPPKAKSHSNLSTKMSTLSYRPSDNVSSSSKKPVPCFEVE
The assay is described as follows: In vitro binding affinity determined by its ability to displace the specific binding ligand [125I]-Sar1, Ile8-AII from Angiotensin II receptor, type 1 in rabbit aorta membranes. Type of assay: cell membranes, Membrane.

In assay [2] the target is T2, Type-2 angiotensin II receptor (Rattus norvegicus, UniProt P35351).
T2 sequence (P35351 whole entry): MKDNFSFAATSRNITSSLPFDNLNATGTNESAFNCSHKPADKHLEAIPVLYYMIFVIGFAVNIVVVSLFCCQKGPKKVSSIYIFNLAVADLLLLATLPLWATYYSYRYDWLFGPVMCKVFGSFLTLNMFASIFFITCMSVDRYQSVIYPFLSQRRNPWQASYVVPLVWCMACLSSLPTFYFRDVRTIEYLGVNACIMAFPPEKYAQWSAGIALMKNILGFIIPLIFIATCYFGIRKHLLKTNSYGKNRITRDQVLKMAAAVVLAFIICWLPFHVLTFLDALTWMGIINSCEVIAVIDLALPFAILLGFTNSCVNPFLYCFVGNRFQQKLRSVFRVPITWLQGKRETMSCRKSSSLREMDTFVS
Briefly: In vitro binding affinity determined by its ability to displace the specific binding ligand [125I]-Sar1, Ile8-AII from AT2 receptor in rat midbrain membranes. Format: cell membranes, Membrane.

The test system of assay [3] is Rattus norvegicus. Briefly: Effective dose in rat after intravenous administration; Range is (0.062 - 0.076). Format: functional.
Assay [4] has as its system Rattus norvegicus. The assay is described as follows: Inhibition on AII-induced pressor responses in rats at a dose of 0.3 upon iv administration at duration of >6 hr. Format: functional.
The subject of assay [5] is Rattus norvegicus. The assay is described as follows: Effective dose in rat after peroral administration; Range is (0.001 - 0.167). Type of assay: functional. Particulars: po.
The subject of assay [6] is Rattus norvegicus. The assay is described as follows: Inhibition on AII-induced pressor responses in rats at a dose of 0.3 upon po administration at duration of >6 hr. Type of assay: functional.
The subject of assay [7] is Canis familiaris. The assay is described as follows: Inhibition on AII-induced pressor responses in Beagle dogs at a dose of 0.3 upon iv administration at duration of >6 hr. Format: functional, Canis lupus familiaris.
Assay [8] deals with Angiotensin II receptor (Homo sapiens) (UniProt P30556+P50052). The assay is described as follows: Ratio of IC50 of AT2/AT1 receptors. Type of assay: protein assay.
Assay [9] has as its system Canis familiaris. The assay is described as follows: Effective dose in Beagle dog after peroral administration; Range is (0.52 - 0.64). Format: functional. As to conditions: Canis lupus familiaris, po.
The subject of assay [10] is Canis familiaris. The assay is described as follows: Inhibitory activity against AII-induced pressor responses in Beagle dogs at a dose of 1.0 upon po administration at duration of >6 hr. Type of assay: functional, Canis lupus familiaris.
The test system of assay [11] is Canis familiaris. Briefly: Effective dose in Beagle dog after intravenous administration; Range is (0.025 - 0.029). Type of assay: functional. As to conditions: Canis lupus familiaris.
In assay [12] the test system is Rattus norvegicus. Briefly: Effective dose in rat after peroral administration; Range is (0.25 - 0.31). Type of assay: functional. As to conditions: po.
For assay [13], the system named is Rattus norvegicus. Briefly: Inhibitory activity against AII-induced pressor responses in rats at a dose of 0.3 upon iv administration at duration of >6 hr. Type of assay: functional.
For assay [14], the system named is Rattus norvegicus. The assay is described as follows: Effective dose in rat after intravenous administration; Range is (0.12 - 0.15). Format: functional.
Assay [15] deals with Canis familiaris. The assay is described as follows: Inhibitory activity against AII-induced pressor responses in Beagle dogs at a dose of 0.3 upon iv administration at duration of >6 hr. Type of assay: functional, Canis lupus familiaris.
The subject of assay [16] is Rattus norvegicus. Briefly: Inhibitory activity against AII-induced pressor responses in rats at a dose of 0.3 upon po administration at duration of >6 hr. Type of assay: functional.

Where only a bound is given, the exact number is not on record here.

The molecule `CCCCCN(C(=O)c1ccccc1)c1ccc2nc(CCC)n(Cc3ccc(-c4ccccc4-c4nn[nH]n4)cc3)c(=O)c2c1` had a concentration for half-maximal inhibition (IC50) in assay [1] of 1 nM.
Turning to `CCCCc1nc2cc(NC(=O)N(c3ccccc3)c3ccccc3)c(C)nc2n1Cc1ccc(-c2ccccc2-c2nn[nH]n2)cc1`, the results for the concentration for half-maximal inhibition (IC50) in assay [1] and in assay [2] were 0.6 nM and 510 nM, respectively.
Take `CCCCOC(=O)NS(=O)(=O)c1ccccc1-c1ccc(Cn2c(CCC)nc3c(C)c(NC(=O)CCC)cnc32)cc1`: the figures for the 50% inhibitory concentration (IC50) in assay [1] and in assay [2] were 0.51 nM and 5.6 nM, respectively.
Regarding `CCCCOC(=O)NS(=O)(=O)c1ccccc1-c1ccc(Cn2c(CCCC)nc3cc(NC(=O)CCCC)c(C)nc32)cc1`, the ED50 was found to be 0.069 mg/kg in the assay on Rattus norvegicus [3] and 0.014 mg/kg with Rattus norvegicus [5]. Besides, the Max inhibition is given as 82% in the assay with Rattus norvegicus [4], 86% in the assay on Rattus norvegicus [6] and 100% in the assay with Canis familiaris [7].
Consider `CCCC(=O)Nc1cnc2c(nc(CCC)n2Cc2ccc(-c3ccccc3S(=O)(=O)NC(=O)OCc3ccccc3)cc2)c1C`, for which the Ratio in [8] is 2.8. Also, the ED50 in the assay with Canis familiaris [9] worked out at 0.58 mg/kg; with Canis familiaris [11], 0.027 mg/kg; in the assay on Rattus norvegicus [12], 0.28 mg/kg; in the assay on Rattus norvegicus [14] it was 0.13 mg/kg. Besides, the Max inhibition in the assay on Canis familiaris [10] came to 76%; in the assay on Rattus norvegicus [13], 85%; in the assay with Canis familiaris [15], 100%; with Rattus norvegicus [16], 58%. Also, the concentration for half-maximal inhibition (IC50) in [1] turned out to be 0.33 nM; in assay [2], 0.94 nM.
For `CCCC(=O)Nc1c(C)nc2c(nc(CCC)n2Cc2ccc(-c3ccccc3S(=O)(=O)NC(=O)CCC3CCCC3)cc2)c1C`, the half-inhibitory concentration (IC50) was 0.26 nM in assay [1] and 0.25 nM in assay [2].
`CCCCC(=O)Nc1cc2nc(CCCC)n(Cc3ccc(-c4ccccc4S(=O)(=O)NC(=O)CCC4CCCC4)cc3)c2nc1C`: the results for the IC50 in assay [1] and in assay [2] were 0.1 nM and 0.31 nM, respectively.
`CCc1nc2c(C)cc(C)nc2n1Cc1ccc(-c2ccccc2-c2nnn[nH]2)cc1` [L-158809]: the IC50 in [2] is over 10000 nM.
With `CCc1nc2c(C)cc(C)nc2n1Cc1ccc(-c2ccccc2S(=O)(=O)NC(=O)CCC2CCCC2)cc1`, the half-maximal inhibitory concentration (IC50) turned out to be 0.1 nM in [1] and 33 nM in assay [2].
As to `CCCCCC(=O)NS(=O)(=O)c1ccccc1-c1ccc(Cn2c(CCCC)nc3cc(NC(=O)CCCC)cnc32)cc1`, the IC50 in assay [1] turned out to be 0.37 nM; in [2] it was 2.7 nM.
